Row | Compound | melting point
1 | Cn1c(-c2ccccc2)cc2onc(-c3ccccc3)c2c1=O | 145 to 148 °C
2 | N#Cc1cnc2cc(-c3ccc(CN4CCOCC4)cn3)ccc2c1Nc1ccc(Oc2ccccc2)cc1 | 219 to 221 °C
3 | COc1ccc(/C=C/c2nc3c([nH]2)c(=O)n(C)c(=O)n3C)cc1Br | > 280 °C
4 | NNc1nc(Cl)nc2c(Cl)cc(Cl)cc12 | > 280 °C
5 | CCOCn1c(S(=O)(=O)C(F)(F)C(F)Cl)c(C#N)c2ccccc21 (stereo not given) | 97 to 100 °C
6 | CCCc1c(C(=O)C(C)C)c2ccc(C(=O)O)cc2n1Cc1ccc(F)cc1Cl | 243 to 244 °C
7 | OC1c2ccc(Cl)cc2OCc2cccnc21 (stereo not given) | 105 to 108 °C
8 | CC(=O)C(C)(C)Cc1cc(C(C)(C)C)c(O)c(C(C)(C)C)c1 | 75 °C
9 | CSc1cc(NCc2nc3ccccc3o2)c(=O)[nH]c1C | 180 to 181 °C
10 | C[C@@H](NC(=O)C1(C)CC1)c1ccc2ccccc2c1 | 91 °C
11 | CC1(C)Oc2ccsc2C(NC(=O)c2ccc(C#N)cc2)C1O (stereo not given) | 177 to 178 °C
12 | Clc1cc2c(cc1Cl)CC=C2 | 76 °C
13 | O=C1c2ccccc2-c2nn(CCO)c3ccc(NCCNCCO)c1c23 | 209 to 211 °C
14 | COCC1OC(n2cnc3c(NC4CCCC4)nc(Cl)nc32)C(O)C1O (stereo not given) | 124 to 126 °C
15 | Cc1c(C(F)(F)F)noc1NS(=O)(=O)c1ccccc1 | 99.5 to 100 °C
16 | CSc1ccc(-c2nc(SC)c(C#N)c(=O)n2-c2ccc(C)cc2)cc1 | 196 to 198 °C
17 | CC(C)CCn1cc([N+](=O)[O-])cc1C(=O)Nc1cc(C(=O)NCCCN2CCOCC2)n(C)c1 | 155 to 158 °C
18 | COc1cc(C)c(C(O)c2c(O)ccc(Cl)c2C)c(OC)c1OC (stereo not given) | 140 to 142 °C
19 | CCCNC(=O)Nc1ccc2c(c1)NC(=O)C2(C)C | 223 to 225 °C

Row | Compound | melting point
20 | COC(=O)C1(N2CCCCC2)CCN(Cc2ccccc2)CC1 | 84.7 °C
21 | CN(C)c1ccc(-c2ccc(C(=O)Nc3cccc(CC(=O)O)c3)o2)cc1 | 187 to 190 °C
22 | CS(=O)(=O)c1ccc(-c2sc(COc3cc(Cl)cc(Cl)c3)nc2-c2ccc(F)cc2)cc1 | 171 to 173 °C
23 | CCCCCCNC(=O)c1ccc(N2N=C(CCC)C(=CNc3ccccc3CC)C2=O)cc1 | 46.7 °C
24 | O=C(SC1CCCC1C(=O)N1CCC[C@H]1C(=O)O)c1ccccc1 (stereo not given in full) | 68 to 70 °C
25 | COC(=O)c1ccc(CC(C)NCC(O)c2ccccc2)c(OC)c1 (stereo not given) | 102 to 104 °C
26 | c1ccc(-c2cn([C@H]3CN4CCC3CC4)nn2)cc1 | 132 °C
27 | Cn1c(C(F)F)nn(-c2cc(O)c(Cl)cc2F)c1=O | 153 to 155 °C
28 | CCCn1nc2c(NC)nc3ccccc3c2c1N | 200 to 201 °C
29 | O=c1c2c(Cl)cc(Cl)cc2n(Cc2ccccc2)c(=O)n1Cc1cccc2ccccc12 | 220 to 226 °C
30 | CC(=O)Nc1ccc(F)cc1S(=O)(=O)CC#N | 154 to 157 °C
31 | N=C(N)NCCCCCOc1cccc2c1NC(=O)C(CC(=O)O)C2 (stereo not given) | 126 to 131 °C
32 | CC(=O)OCC(N=O)C(C)(C)Cl (stereo not given) | 117 to 119 °C
33 | CC(=O)C1CCC2C3CCC4CC(O)C(O)CC4(C)C3C(=O)CC12C (stereo not given) | 194 to 198 °C
34 | CN1C(=O)C(=Cc2ccc(O)c(C(C)(C)C)c2)SC1=S | > 230 °C
35 | CC(C)(C)C(=O)C=CC1C(C(=O)OC(C#N)c2cccc(Oc3ccccc3)c2)C1(C)C (stereo not given) | 89 °C
36 | CC1(C)CCC(C)(C)c2cc(-c3cc(-c4ccc(CN)cc4)on3)ccc21 | 138 to 143 °C
37 | CC(=NOCC(N)=O)c1ccc(Cl)c(Cl)c1 | 111 to 112 °C
38 | NS(=O)(=O)c1cc(C(=O)O)cc(SCc2ccccc2)c1Sc1ccccc1 | 208 to 209 °C

Row | Compound | melting point
39 | COc1ncc(NC(=S)NC(=O)c2ccccc2)c(OC)n1 | 182 °C
40 | CCCNC(=O)C1(CCC)c2ccccc2Sc2ccccc21 | 132 to 133 °C
41 | CC(C)(C#N)c1c(Cl)cc(N)cc1Cl | 208 °C
42 | C=CCN1CCNC(=O)c2cccc([N+](=O)[O-])c21 | 80 to 82 °C
43 | COc1cc(OC)c(C(C)=O)c(O)c1C | 143 to 144 °C
44 | Cc1ccc2c(c1)C1(OCCO1)C1(CCC(=O)CC1)C2 | 116 to 118 °C
45 | N#CCOc1c(-c2ccccc2)c(=O)[nH]c2cc(Cl)ccc12 | 209 to 211 °C
46 | CCc1[nH]c2cccc3c2c1CC1C3CC(NC(=O)N(CC)CC)CN1C (stereo not given) | 165 to 168 °C
47 | CCCCCCCCCCCCCCOc1ccc(C(=O)N(CC(=O)OC)CC(=O)OC)cc1OCCCCCCCCCCCCCC | 70 to 71 °C
48 | CC(C)(C)c1cc(CCc2cc(C=O)cc(CCc3cc(C(C)(C)C)cc(C(C)(C)C)c3)c2)cc(C(C)(C)C)c1 | 74 to 75 °C
49 | COc1ccc2nc(Oc3c(Cl)cc(NS(=O)(=O)c4ccc(C(F)(F)F)cc4Cl)cc3Cl)sc2c1 | 164 to 165 °C
50 | Cc1cc(-c2oncc2CO)ccc1Cl | 92 to 93 °C
51 | Cc1cc(O)cnc1Cl | 126 to 128 °C
52 | CC1CCNC(=C2C(=O)CC(C(C)C)CC2=O)N1 (stereo not given) | 71 to 83 °C
53 | O=C1Cc2cc(C(=O)CCl)ccc2N1 | 236 to 239 °C
54 | C[C@H](NS(=O)(=O)c1ccc2c(c1)Sc1ccccc1O2)C(=O)O | 75 to 85 °C
55 | NC(=O)c1[nH]c2ccc(Cl)cc2c1S(=O)(=O)c1ccccc1Cl | 267 °C
56 | O=[N+]([O-])c1cccnc1NCC(O)CO (stereo not given) | 95.5 to 98 °C

Continued, values first:

Row | melting point | Compound
57 | 126 °C | COc1ccc(-c2cncc(OC3SCC(OC(C)=O)C(OC(C)=O)C3OC(C)=O)c2)c(Cl)c1 (stereo not given)
58 | 156 to 157 °C | Clc1ccc(CN2CCC(c3cc(-c4cccc(Cl)c4)[nH]n3)CC2)cc1
59 | 161 to 163 °C | CS(=O)(=O)N(Cl)C(=O)c1cc(Oc2ccc(Cl)cc2Cl)ccc1[N+](=O)[O-]
60 | 134 to 137 °C | CS(=O)(=O)N1CCC(CCC(=O)c2ccc3c(c2)CCN(Cc2ccccc2)CC3)CC1
61 | 273 to 275 °C | O=C(O)c1cccc(-n2ncc3c2CCc2ccccc2-3)c1
62 | 56 to 58 °C | COc1ccc(Oc2c(C)cc(CC#N)cc2C)cc1C(C)C
63 | 154 °C | COC(=O)C1=NNC(C)=C(C(=O)OC)C1c1ccc(OC)cc1 (stereo not given)
64 | 178 °C | COc1ccc(C2=NN(C3CCN(C(=O)CN4C(=O)Cc5ccccc54)CC3)C(=O)C2(C)C)cc1OC
65 | 143 °C | O=C(Cc1cccc2ccccc12)Nc1cc([C@H]2C[C@@H](NC(=O)c3cccc(C(F)(F)F)c3)C2)[nH]n1
66 | 35 to 36 °C | CCCCCC[C@@H]1C[C@H](c2ccc(OC)cc2)C(=O)O1
67 | 218 °C | CCOC(=O)c1c(O)c2sccc2[nH]c1=O
68 | 171 to 172 °C | O=C(Nc1ccc(F)c(C(F)(F)F)c1)N1COc2cc(O)ccc21
69 | 99 to 100 °C | CCC(Oc1ccc(-c2ccc(C#N)c(Cl)c2)cc1)C(O)CCc1cccnc1 (stereo not given)
70 | 170 to 172 °C | O=C(O)c1ccc(OCCCON=Cc2ccc(-c3ccccc3)cc2)cc1NC(=O)c1ccccc1C(F)(F)F
71 | 108 °C | COc1ccc(Sc2cc3ccccc3nn2)cc1
72 | 111 to 122 °C | CCN1CCCC1CNC(=O)c1cc(S(=O)(=O)CC)cc2c1OCCO2 (stereo not given)
73 | 182 to 183 °C | N#Cc1cc(NC(=O)c2ccn(-c3ccc(F)cc3)c2)ccc1N1CCC(N2CCOCC2)CC1
74 | 152 to 154 °C | CC(C)(C)c1cc(CN2CCN(c3ccc(N)cc3)CC2)cc(C(C)(C)C)c1O
75 | 108 °C | CC(C)(C)OC(=O)C[C@H](NC(=O)CNC(=O)c1csc(NC(=O)NCc2ccccc2)n1)C(=O)NCc1ccccn1
76 | 229 to 230 °C | Cc1cc(-c2nc3cccnn3c2-c2ccnc(NC(=O)NC3CCCCC3)c2)ccc1F
77 | 86.2 °C | Cc1ccc(S(=O)(=O)N2CCCN(c3cccc(C)c3C)CC2)cc1
78 | 145 to 147 °C | COc1ccc(C2C=C3CCN(Cc4ccccc4)CC3C(CO)C2CO)cc1 (stereo not given)

Row | melting point | Compound
79 | 75 °C | CC(=O)CCNc1ccc(-c2cc(-c3ccc(C(=O)O)cc3)ccc2OCCCCO)cc1C(C)(C)C
80 | 184 to 185 °C | CCN(CC)Cc1ccc2[nH]c(-c3ccccc3F)cc(=O)c2c1
81 | 155 °C | N#CC=C1CCN(c2ccc(N3CC(CNC(=O)C4CCCN4)OC3=O)cc2F)CC1 (stereo not given)
82 | 179 to 182 °C | CC(C)(C)c1ccc(C(O)CCCN2CCC(C(O)(c3ccccc3)c3ccc(C(C)(C)C)cc3)CC2)cc1 (stereo not given)
83 | 204 to 210 °C | CCOC(=O)c1[nH]c2cc(C(F)(F)F)ccc2c1N
84 | 174 to 176 °C | CC(C(=O)O)C(=O)NCCC=C1c2ccccc2CCc2ccccc21 (stereo not given)
85 | 92 to 95 °C | CCOC(=O)c1ccc(OCc2ccc(C3CCN(C(=O)OC(C)(C)C)CC3)cn2)cc1F
86 | 174 to 176 °C | CCOC(=O)c1ccc(-c2cnc(-c3ccc(C(F)(F)F)cc3)s2)cc1
87 | 52 to 53.5 °C | CCN(CC)c1ccc(C(=O)OC)nc1
88 | 128 to 131 °C | COc1ccc(C(C)CN2C=CC=C3C2=Nc2cc(OC)ccc2S(=O)(=O)N3C)cc1 (stereo not given)
89 | 92 to 93 °C | CN(C)Cc1cccc(OCCCNc2nc(N=Cc3cccnc3)nn2C)c1
90 | 178 to 180 °C | O=C1CCC(N2Cc3c(OCc4ccc(CN5CCCC5C(F)(F)F)cc4)cccc3C2=O)C(=O)N1 (stereo not given)
91 | 175 to 180 °C | CC(CCc1c[nH]c2c(F)cc(F)cc12)N(CC1CC1)C1COc2c(F)ccc(C(N)=O)c2C1 (stereo not given)
92 | 213 °C | COc1ccc(OCC(=O)O)c(C(Nc2ccc(C(=N)N)cc2)C(=O)O)c1 (racemic)
93 | 217 to 219 °C | Cc1ccc2ccc(C(=O)O)c(O)c2n1
94 | 123 to 124 °C | CCOC(=O)N1CCC(=C2c3ccccc3C=Cc3ccccc32)CC1
95 | 133 to 134 °C | COC/C(=C1/SC(=O)NC1=O)c1cccc2ccccc12
96 | 214 to 215 °C | CN1CCN(c2ncnc3oc(-c4ccc(N)cc4)c(-c4ccc(F)cc4)c23)CC1
97 | 163 to 164 °C | CCOC(=O)C1(F)C(=O)NC(=O)NC1O/N=C\c1ccc(C)o1 (stereo not given)
98 | 133 to 135 °C | COC(=O)c1ccc(OC)c(CC2COc3ccc(OCc4ccccc4)cc3C2O)c1 (stereo not given)
99 | 169 to 174 °C | COc1ccc(Nc2ccnc3nc(C)c(O)cc23)cc1
100 | 178 to 181 °C | Cc1ccc(Cn2c(C)cc(C)c(C#N)c2=O)cc1
